Test results as given in US20260034094A1, “COMPOSITIONS AND METHODS FOR INDUCING FERROPTOSIS” (Kojin Therapeutics, Inc., priority 2022, published 2026).
pEC50, pIC50: −log10 of the molar value. Where two headings read alike, the source gives them in different places.

What was measured:
human recombinant GCL = human recombinant GCL (Homo sapiens (Human), UniProt P48506); test: GCL enzyme profiling assay (ADP-Glo luminescence); format: biochemical; settings: read-out: GCL IC50
Description: The GCL enzyme assay was run in 50 mM HEPES, pH 7.5, containing 150 mM NaCl, 30 mM MgCl2, 0.5 mM EDTA, 1 mM DTT, 0.1 mg/mL BSA, and 0.02% or in the present case 0.2% F-127 in a total assay volume of 10 μL or 10 mL. Compound in pure DMSO was stamped in assay plates (Greiner black 384-well) or appropriate containers using a D300e digital dispenser (TECAN) and the final DMSO concentration was normalized to 1%. A 5 mL, or in the present case, 5 μL mixture of human recombinant GCL (final concentration: 5 nM) and ATP (final concentration: 0.6 mM) was added and the solution was incubated at room temperature (22° C.) for 1 h. The GCL enzyme reaction was initiated by addition of a 5 μL mixture of mono g-glutamate or in the present example, monosodium glutamate (final concentration: 1 mM) and a-aminobutyrate or α-aminobutyrate (final concentration: 1.2 mM). The reaction was stopped after 1 h or in the present case, 2 h by addition of 5 mL, or in the present case, 5 μL ADP GLO Reagent (Promega). The resulting solution was incubated for 2 h at room temperature. This was then followed by addition of 5 mL, or in the present case, 5 μL ADP GLO Detection. After incubation at room temperature for 30 min, the plates were read on a plate reader (PheraStar) using a luminescence protocol to quantify the GCL enzyme activity from each reaction solution. The data was analyzed using a four-parameter logistic equation to calculate IC50.

RKN cells = test: RKN cell profiling assay (cell viability, CellTiter-Glo); format: cell-based; settings: read-out: Cell Killing EC50
Description: RKN cells were suspended in assay medium (F-12 medium supplemented with 10% FBS and penicillin/streptomycin) and seeded at 1,000 cells per well (30 μL total volume) in opaque white 384-well plates (Corning). Cells were allowed to adhere for 24 h at 37° C. (95% humidity, 5% CO2) and then exposed to compounds disclosed herein for 72 h, or in the present case, 96 h. DMSO stock solutions of compounds were added to cells using a D300e Digital Dispenser (Tecan). The final DMSO concentration in each well was normalized to 0.5% (v/v) after compound treatment. Cell viability was measured using CellTiter-Glo (Promega). After incubation for 15 min at room temperature, luminescence was measured using a PHERAstar FSX microplate reader (BMG Labtech). Ferroptosis rescue experiments were performed as described previously using cells treated with ferrostatin-1 (fer-1, 1.5 μM) when seeding assay plates. Dose-response data were analyzed to determine EC50 values with GraphPad Prism 9 software using a four-parameter logistic equation or CDD Vault (Collaborative Drug Discovery) using the Levenberg-Marquardt algorithm.

[1] = human recombinant GCL 5 nM, 1 h preincubation with ATP

human recombinant GCL, sequence (P48506 whole entry): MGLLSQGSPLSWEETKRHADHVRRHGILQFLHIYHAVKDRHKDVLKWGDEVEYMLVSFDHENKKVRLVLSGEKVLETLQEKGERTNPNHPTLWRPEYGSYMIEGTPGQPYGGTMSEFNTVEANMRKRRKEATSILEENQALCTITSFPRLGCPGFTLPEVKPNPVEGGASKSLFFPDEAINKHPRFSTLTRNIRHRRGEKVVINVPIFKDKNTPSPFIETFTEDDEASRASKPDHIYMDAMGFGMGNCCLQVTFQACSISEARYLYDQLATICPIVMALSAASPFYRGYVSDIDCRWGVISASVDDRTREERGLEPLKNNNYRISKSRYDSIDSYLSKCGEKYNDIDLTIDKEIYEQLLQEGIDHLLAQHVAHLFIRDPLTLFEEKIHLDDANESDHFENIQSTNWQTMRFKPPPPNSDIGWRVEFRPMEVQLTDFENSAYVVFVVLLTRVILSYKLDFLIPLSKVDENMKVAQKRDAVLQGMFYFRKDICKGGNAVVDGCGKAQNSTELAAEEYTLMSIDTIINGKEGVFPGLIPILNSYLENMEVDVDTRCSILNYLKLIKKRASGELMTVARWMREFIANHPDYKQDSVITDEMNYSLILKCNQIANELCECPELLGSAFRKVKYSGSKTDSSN

| Compound | pEC50 (RKN cells; cell viability) | other results |
| --- | --- | --- |
| CC(C)(C)CC[S@@](=N)(=O)CC[C@H](N)C(=O)Nc1cccnc1 (single isomer, unassigned) [Compound 102] |  | pIC50 (human recombinant GCL; [1]): < 2.70; pEC50 (RKN cells; 96 h, 96 h exposure): ≤ 3.00 |
| CC(C)(C)CC[S@](=N)(=O)CC[C@H](N)C(=O)Nc1cccnc1 (single isomer, unassigned) [Compound 103] |  | pIC50 (human recombinant GCL; [1]): < 2.70; pEC50 (RKN cells; 96 h, 96 h exposure): > 3.00 |
| N=S(=O)(CCC(c1ccc(-c2ccccc2Cl)cc1)C(F)(F)F)CC[C@H](N)C(=O)O (single isomer, unassigned) [Compound 218] | ≤ 3.00 | pIC50 (human recombinant GCL; human recombinant GCL, ADP-Glo): 2.70 to 4.70 |
| C[C@@](O)(CCS(=N)(=O)CC[C@H](N)C(=O)O)C(F)(F)F (single isomer, unassigned) [Compound 322] | > 3.00 | pIC50 (human recombinant GCL; human recombinant GCL, ADP-Glo): ≥ 4.70 |
| C[C@@](O)(CCS(=N)(=O)CC[C@H](N)C(=O)O)C(F)(F)F (single isomer, unassigned) [Compound 323] | ≤ 3.00 | pIC50 (human recombinant GCL; human recombinant GCL, ADP-Glo): < 2.70 |
| C[C@](O)(CCS(=N)(=O)CC[C@H](N)C(=O)O)C(F)(F)F (single isomer, unassigned) [Compound 324] | > 3.00 | pIC50 (human recombinant GCL; human recombinant GCL, ADP-Glo): ≥ 4.70 |
| C[C@](O)(CCS(=N)(=O)CC[C@H](N)C(=O)O)C(F)(F)F (single isomer, unassigned) [Compound 325] | ≤ 3.00 | pIC50 (human recombinant GCL; human recombinant GCL, ADP-Glo): < 2.70 |
| N=S(=O)(CC[C@H](N)C(=O)O)CC[C@H](O)C(F)(F)F (single isomer, unassigned) [Compound 326] | > 3.00 | pIC50 (human recombinant GCL; human recombinant GCL, ADP-Glo): ≥ 4.70 |
| N=S(=O)(CC[C@H](N)C(=O)O)CC[C@H](O)C(F)(F)F (single isomer, unassigned) [Compound 327] | ≤ 3.00 | pIC50 (human recombinant GCL; human recombinant GCL, ADP-Glo): < 2.70 |
| N=S(=O)(CC[C@@H](O)C(F)(F)F)CC[C@H](N)C(=O)O (single isomer, unassigned) [Compound 328] | > 3.00 | pIC50 (human recombinant GCL; human recombinant GCL, ADP-Glo): ≥ 4.70 |
| N=S(=O)(CC[C@@H](O)C(F)(F)F)CC[C@H](N)C(=O)O (single isomer, unassigned) [Compound 329] | ≤ 3.00 | pIC50 (human recombinant GCL; human recombinant GCL, ADP-Glo): < 2.70 |
| N=[S@](=O)(CC[C@H](N)C(=O)O)CCC(O)(c1ccccc1)C(F)(F)F (single isomer, unassigned) [Compound 345] | ≤ 3.00 | pIC50 (human recombinant GCL; human recombinant GCL, ADP-Glo): < 2.70 |
| N=[S@@](=O)(CC[C@H](N)C(=O)O)CCC1(c2ccccc2)CCC1 (single isomer, unassigned) [Compound 392] | > 3.00 | pIC50 (human recombinant GCL; human recombinant GCL, ADP-Glo): ≥ 4.70 |
| N=S(=O)(CC[C@H](N)C(=O)O)CCC(O)(c1ccc(-c2ccc(Cl)cc2Cl)cn1)C(F)(F)F (single isomer, unassigned) [Compound 464] | ≤ 3.00 | pIC50 (human recombinant GCL; human recombinant GCL, ADP-Glo): 2.70 to 4.70 |
| N=S(=O)(CC[C@H](N)C(=O)O)CCn1ccnc1 (some centres unmarked) [Compound 7] |  | pIC50 (human recombinant GCL; [1]): < 2.70 |
| Cc1ccccc1OCCS(=N)(=O)CC[C@H](N)C(=O)O (some centres unmarked) [Compound 14] |  | pIC50 (human recombinant GCL; [1]): 2.70 to 4.70 |
| N=S(=O)(CCCc1cn[nH]c1)CC[C@H](N)C(=O)O (stereo partly drawn) [Compound 50, (2S)-4-(3-(1H-pyrazol-4-yl)propylsulfonimidoyl)-2-aminobutanoic acid] |  | pIC50 (human recombinant GCL; [1]): 2.70 to 4.70 |
| CC(COC(=O)c1ccccc1)OC(=O)[C@@H](N)CCS(=N)(=O)CCC(C)(C)C (some centres unmarked) [Compound 98] |  | pIC50 (human recombinant GCL; [1]): 2.70 to 4.70 |
| N=S(=O)(CCC1CCO1)CC[C@H](N)C(=O)O (some centres unmarked) [Compound 304] |  | pIC50 (human recombinant GCL; human recombinant GCL, ADP-Glo): 2.70 to 4.70 |
| N=S(=O)(CCC(c1ccc(Oc2ccc(Cl)cc2Cl)cc1)C(F)(F)F)CC[C@H](N)C(=O)O (some centres unmarked) [Compound 318] | > 3.00 |  |
| N=S(=O)(CCC(CO)C(F)(F)F)CC[C@H](N)C(=O)O (some centres unmarked) [Compound 320] | > 3.00 |  |
| N=S(=O)(CC[C@H](N)C(=O)O)CCC(O)(c1ccn(-c2ccc(Cl)cc2Cl)n1)C(F)(F)F (some centres unmarked) [Compound 336] | ≤ 3.00 |  |
| N=S(=O)(CC[C@H](N)C(=O)O)CCC(O)(c1cc(-c2ccc(Cl)cc2Cl)cs1)C(F)(F)F (some centres unmarked) [Compound 337] | > 3.00 |  |
| N=S(=O)(CC[C@H](N)C(=O)O)CCC(O)(c1ccc(OC2CCCCC2)cc1)C(F)(F)F (some centres unmarked) [Compound 339] | > 3.00 |  |
| N=S(=O)(CC[C@H](N)C(=O)O)CCC(O)([C@H]1CC[C@H](c2ccc(Cl)cc2Cl)CC1)C(F)(F)F (some centres unmarked) [Compound 340] | > 3.00 |  |
| N=S(=O)(CC[C@H](N)C(=O)O)CCC(O)([C@H]1CC[C@@H](c2ccc(Cl)cc2Cl)CC1)C(F)(F)F (some centres unmarked) [Compound 341] | > 3.00 |  |
| N=S(=O)(CC[C@H](N)C(=O)O)CCC(O)(c1ccc(Oc2ccc(Cl)cc2Cl)cc1)C(F)(F)F (some centres unmarked) [Compound 342] | > 3.00 |  |

| Compound | pEC50 (RKN cells; cell viability) | other results |
| --- | --- | --- |
| N=S(=O)(CC[C@H](N)C(=O)O)CCC(O)(c1cnc(-c2ccc(Cl)cc2Cl)nc1)C(F)(F)F (some centres unmarked) [Compound 366] | > 3.00 |  |
| N=S(=O)(CC[C@H](N)C(=O)O)CCC(O)(c1cnc(-c2ccc(Cl)cc2Cl)cn1)C(F)(F)F (some centres unmarked) [Compound 367] | > 3.00 |  |
| N=S(=O)(CC[C@H](N)C(=O)O)CCC(O)(c1ccc2ccccc2n1)C(F)(F)F (some centres unmarked) [Compound 373] | > 3.00 |  |
| N=S(=O)(CCC(c1ccc2[nH]nnc2c1)C(F)(F)F)CC[C@H](N)C(=O)O (some centres unmarked) [Compound 393] | ≤ 3.00 |  |
| N=S(=O)(CCC(c1ccccc1O)C(F)(F)F)CC[C@H](N)C(=O)O (some centres unmarked) [Compound 397] | > 3.00 |  |
| N=S(=O)(CCC(c1ccc2[nH]cnc2c1)C(F)(F)F)CC[C@H](N)C(=O)O (some centres unmarked) [Compound 399] | ≤ 3.00 |  |
| N=S(=O)(CC[C@H](N)C(=O)O)CCC1(c2ccc(Oc3ccc(Cl)cc3Cl)cc2)CCC1 (some centres unmarked) [Compound 403] | ≤ 3.00 |  |
| N=S(=O)(CCC(N1CCN(c2ccc(Cl)cc2Cl)CC1)C(F)(F)F)CC[C@H](N)C(=O)O (some centres unmarked) [Compound 423] | > 3.00 |  |
| Cc1ccccc1-c1ccc(C(O)(CCS(=N)(=O)CC[C@H](N)C(=O)O)C(F)(F)F)cc1 (some centres unmarked) [Compound 429] | > 3.00 |  |
| Cc1cc(Cl)ccc1-c1ccc(C(O)(CCS(=N)(=O)CC[C@H](N)C(=O)O)C(F)(F)F)cc1 (some centres unmarked) [Compound 430] | > 3.00 |  |
| N=S(=O)(CC[C@H](N)C(=O)O)CCC(O)(c1ccc(-c2ccc(Cl)cc2)cc1)C(F)(F)F (some centres unmarked) [Compound 431] | > 3.00 |  |
| Cc1ccc(-c2ccc(C(O)(CCS(=N)(=O)CC[C@H](N)C(=O)O)C(F)(F)F)cc2)c(Cl)c1 (some centres unmarked) [Compound 432] | > 3.00 |  |
| Cn1ncc(-c2ccc(C(O)(CCS(=N)(=O)CC[C@H](N)C(=O)O)C(F)(F)F)cc2)cc1=O (some centres unmarked) [Compound 433] | ≤ 3.00 |  |
| N=S(=O)(CC[C@H](N)C(=O)O)CCC(O)(c1cccc(-c2ccccc2)c1)C(F)(F)F (some centres unmarked) [Compound 435] | ≤ 3.00 |  |
| Cc1ccc(-c2ccc(C(O)(CCS(=N)(=O)CC[C@H](N)C(=O)O)C(F)(F)F)cc2)c(F)c1 (some centres unmarked) [Compound 437] | > 3.00 |  |
| Cc1cc(C(O)(CCS(=N)(=O)CC[C@H](N)C(=O)O)C(F)(F)F)ccc1-c1ccc(Cl)cc1Cl (some centres unmarked) [Compound 443] | > 3.00 |  |
| N=S(=O)(CC[C@H](N)C(=O)O)CCC(O)(c1ccc(-c2ccc(Cl)cc2Cl)cn1)C(F)(F)F (some centres unmarked) [Compound 465] | ≤ 3.00 |  |
| N=S(=O)(CC[C@H](N)C(=O)O)CCC(O)(c1ccc(-c2ccc(Cl)cc2Cl)cn1)C(F)(F)F (some centres unmarked) [Compound 466] | > 3.00 |  |
| N=S(=O)(CC[C@H](N)C(=O)O)CCC(O)(c1ncc(-c2ccccc2)cn1)C(F)(F)F (some centres unmarked) [Compound 467] | > 3.00 |  |
| N=S(=O)(CC[C@H](N)C(=O)O)CCC(O)(c1ncc(-c2ccc(Cl)cc2Cl)cn1)C(F)(F)F (some centres unmarked) [Compound 468] | > 3.00 |  |
| N[C@@H](CCS(=O)(=O)CCC(O)(c1ncc(-c2ccc(Cl)cc2Cl)cn1)C(F)(F)F)C(=O)O (some centres unmarked) [Compound 470] | ≤ 3.00 |  |
| Cc1ccccc1-c1ccc(C(O)(CCS(=N)(=O)CC[C@H](N)C(=O)O)C(F)(F)F)nc1 (some centres unmarked) [Compound 471] | > 3.00 |  |
| Cn1cc(-c2ccc(C(O)(CCS(=N)(=O)CC[C@H](N)C(=O)O)C(F)(F)F)nc2)cn1 (some centres unmarked) [Compound 472] | ≤ 3.00 |  |
| Cc1cc(Cl)ccc1-c1cnc(C(O)(CCS(=N)(=O)CC[C@H](N)C(=O)O)C(F)(F)F)nc1 (some centres unmarked) [Compound 474] | > 3.00 |  |
| N=S(=O)(CC[C@H](N)C(=O)O)CCC(O)(c1ccc(C2CCCCC2)cn1)C(F)(F)F (some centres unmarked) [Compound 476] | > 3.00 |  |
| N=S(=O)(CC[C@H](N)C(=O)O)CCC(O)(c1ccc(-c2ccco2)cn1)C(F)(F)F (some centres unmarked) [Compound 481] | > 3.00 |  |
| C#CCNC(=O)[C@@H](N)CCS(=N)(=O)CCCC (some centres unmarked) [compound 493] |  | pIC50 (human recombinant GCL; human recombinant GCL, ADP-Glo): < 2.70 |
